According to patent US8722937B2 (priority 2006, dated 2014):
Converted amounts (≈) assume the structure as drawn. Read-outs that look alike come from different tables or passages of the source.

Tests used:
[1] = system: S. aureus (ATCC 25923); experiment: microbe, parasite or virus in culture; assay type: cell-based, Staphylococcus aureus; conditions: 24 h, 37° C.; for zone of inhibition at 20 µg/disc: Staphylococcus aureus, ATCC25923
[2] = system: S. aureus (ATCC 25923); experiment: Agar dilution minimum inhibitory concentration (MIC), S. aureus; assay type: cell-based, Staphylococcus aureus; conditions: serial dilution in 24-well plate, NCCLS; for MIC: Staphylococcus aureus, ATCC25923, read-out: Minimum inhibitory concentration (MIC) against S. aureus (ATCC 25923)
[3] = system: B. anthracis (USF 848); experiment: microbe, parasite or virus in culture; assay type: cell-based, Bacillus anthracis; conditions: 24 h, 37° C.; for zone of inhibition at 20 µg/disc: Bacillus anthracis
[4] = system: E. coli (K12; ATCC 23590); experiment: Kirby-Bauer zones of inhibition, E. coli; assay type: cell-based, Escherichia coli; conditions: full or partial not stated
[5] = system: methicillin-resistant S. aureus (MRSA); experiment: microbe, parasite or virus in culture; assay type: cell-based, Staphylococcus aureus; conditions: 24 h, 37° C.; for zone of inhibition at 20 µg/disc: Staphylococcus aureus, MRSA, read-out: Average zones of growth inhibition of MRSA (USF-652-659, 919-920)
[6] = system: B. anthracis (USF 848); experiment: microbe, parasite or virus in culture; assay type: cell-based, Bacillus anthracis; conditions: for MIC: Bacillus anthracis, read-out: Minimum inhibitory concentration (MIC) against B. anthracis (USF 848)
[7] = read-out: Zones of growth inhibition of S. aureus (ATCC 25923)
[8] = read-out: Zones of growth inhibition of S. aureus (ATCC 25923), areas of partial inhibition
[9] = read-out: Zones of growth inhibition of B. anthracis (USF 848), areas of partial growth inhibition
[10] = read-out: Zones of growth inhibition of B. anthracis (USF 848)

Row | Structure (SMILES) | zone of inhibition at 20 µg/disc [1, 7] | zone of inhibition at 20 µg/disc [1, 8] | MIC [2] | zone of inhibition at 20 µg/disc [3, 9] | Zones of growth inhibition of S. aureus (ATCC 25923) [1] | Zones of growth inhibition of S. aureus (ATCC 25923), areas of partial inhibition [1] | zone of inhibition at 20 µg/disc [3, 10] | MIC [6] | further results
1 | CCC(C)SSc1ccc(C)c(C)c1 (centres unmarked) [Compound 35d, sec-Butyl 3,4-dimethylphenyl Disulfide] | 0 mm |  |  |  |  |  |  |  | 
2 | CCCSSc1ccc(C)c(C)c1 [Compound 35e, 3,4-Dimethylphenyl n-propyl Disulfide] | 0 mm |  |  |  |  |  |  |  | 
3 | CCCCSSc1ccc(C)c(C)c1 [Compound 35f, n-Butyl 3,4-dimethylphenyl Disulfide] | 0 mm |  |  |  |  |  |  |  | 
4 | CCOc1cccc(SSC)c1 [Compound 36a, m-Ethoxyphenyl Methyl Disulfide] |  | 9 mm |  |  |  |  |  |  | 
5 | CSSc1ccc(N)cc1 [Compound 39a, p-Aminophenyl Methyl Disulfide] | 0 mm |  |  |  |  |  |  |  | 
6 | CSSc1ccccc1CO [Compound 41a, o-(Hydroxymethyl)phenyl Methyl Disulfide] |  | 14 mm | 64 µg/mL (≈ 344 µM) |  |  |  |  |  | 
7 | CSSc1ccccn1 [Compound 42a, Methyl 2-pyridinyl Disulfide] | 16 mm | 23 mm | 64 µg/mL (≈ 407 µM) |  |  |  |  |  | activity against S. aureus (ATCC 25923) in Kirby-Bauer assay, in words [1]: some activity
8 | CCSSc1ccccn1 [Compound 42b, Ethyl 2-pyridinyl Disulfide] |  | 21 mm | 32 µg/mL (≈ 187 µM) | 27 mm |  |  |  |  | activity against S. aureus (ATCC 25923) in Kirby-Bauer assay, in words [1]: some activity
9 | CC(C)SSc1ccccn1 [Compound 42c, Isopropyl 2-pyridinyl Disulfide] | 0 mm |  |  | 16 mm |  |  |  |  | 
10 | CCC(C)SSc1ccccn1 (centres unmarked) [Compound 42d, s-Butyl 2-pyridinyl Disulfide] | 0 mm |  |  | 17 mm |  |  |  |  | 
11 | CSSc1cccc([N+](=O)[O-])c1 [Compound 43a, Methyl m-nitrophenyl Disulfide] | 27 mm | 36 mm | 16 µg/mL (≈ 79.5 µM) |  | 27 (36) mm | 27 (36) mm | 43 mm | 2 µg/mL (≈ 9.94 µM) | zone of inhibition against E. coli [4]: 10 mm; zone of inhibition at 20 µg/disc [5]: 15 mm
12 | CCSSc1cccc([N+](=O)[O-])c1 [Compound 43b, Ethyl m-nitrophenyl Disulfide] |  | 45 mm | 48 µg/mL (≈ 223 µM) | 40 mm |  |  | 32 mm | 0.38 µg/mL (≈ 1.76 µM) | zone of inhibition at 20 µg/disc [5]: 12 mm
13 | CC(C)SSc1cccc([N+](=O)[O-])c1 [Compound 43c, Isopropyl m-nitrophenyl Disulfide] | 55 mm | 85 mm | 0.4 µg/mL (≈ 1.74 µM) | 54 mm | 55 (85) mm | 55 (85) mm | 30 mm | < 0.125 µg/mL | zone of inhibition at 20 µg/disc [5]: 38 mm
14 | CCC(C)SSc1cccc([N+](=O)[O-])c1 (centres unmarked) [Compound 43d, s-Butyl m-nitrophenyl Disulfide] | 25 mm | 45 mm | 2 µg/mL (≈ 8.22 µM) | 41 mm | 25 (45) mm | 25 (45) mm | 27 mm | < 0.125 µg/mL | zone of inhibition at 20 µg/disc [5]: 22 mm
15 | CSSc1ccccc1[N+](=O)[O-] [Compound 44a, Methyl o-nitrophenyl Methyl Disulfide] |  |  |  |  | 34(37) mm | 34(37) mm |  |  | zone of inhibition against E. coli [4]: 9 mm; Average zones of growth inhibition of MRSA (USF-652-659, 919-920) [5]: 26 mm; Zones of growth inhibition of B. anthracis (USF 848) [3]: 31 mm; Minimum inhibitory concentration (MIC) against B. anthracis (USF 848) [6]: 4 µg/mL (≈ 19.9 µM); Minimum inhibitory concentration (MIC) against S. aureus (ATCC 25923) [2]: 64 µg/mL (≈ 318 µM)
16 | CCSSc1ccccc1[N+](=O)[O-] [Compound 44b] |  |  |  |  | 29(40) mm | 29(40) mm |  |  | Zones of growth inhibition of B. anthracis (USF 848) [3]: 35 mm; Minimum inhibitory concentration (MIC) against B. anthracis (USF 848) [6]: 0.63 µg/mL (≈ 2.93 µM); Minimum inhibitory concentration (MIC) against S. aureus (ATCC 25923) [2]: 16 µg/mL (≈ 74.3 µM)
17 | CC(C)SSc1ccccc1[N+](=O)[O-] [Compound 44c, Isopropyl o-nitrophenyl Disulfide] | 17 mm | 31 mm | 6 µg/mL (≈ 26.2 µM) | 27 mm | 17 (31) mm | 17 (31) mm | 16 mm | 0.63 µg/mL (≈ 2.75 µM) | zone of inhibition at 20 µg/disc [5]: 20 mm
18 | CCC(C)SSc1ccccc1[N+](=O)[O-] (centres unmarked) [Compound 44d, s-Butyl o-nitrophenyl Disulfide] | 15 mm | 24 mm | 16 µg/mL (≈ 65.7 µM) |  | 15 (24) mm | 15 (24) mm | 23 mm | 0.75 µg/mL (≈ 3.08 µM) | 
19 | CSSc1ccc(NC(C)=O)cc1 [Compound 46a, p-Acetamidophenyl Methyl Disulfide] |  | 20 mm |  | 23 mm |  |  |  | 8 µg/mL (≈ 37.5 µM) | 
